ChEMBL document CHEMBL5678816, “A Next-Generation TRK Kinase Inhibitor Overcomes Acquired Resistance to Prior TRK Kinase Inhibition in Patients with TRK Fusion-Positive Solid Tumors” (Cancer Discov, 2017)
Activity calls are given as the source filed them. No cut-off for these calls is given here.

Legend:
[1] = Oral bioavailability in monkey at 10 mg/kg administered as 20% hydroxypropyl-beta-cyclodextrin formulation by LC-MS analysis; format: ADME, organism-based, Macaca mulatta; settings: rhesus monkey, in vivo
[2] = Toxicity in nu/nu NCr mouse xenografted with human KM12 cells harboring TPM3-TRKA fusion protein assessed as body weight loss at 30 to 300 mg/kg, po administered twice daily for 11 days relative to control; format: organism-based; settings: in vivo, 264 h, dose 30-300 mg/kg, time 11 day
[3] = system: DU-145; test: Inhibition of cell proliferation in human DU-145 cells upto 10 umol/L incubated for 72 hrs by DAPI staining based analysis; format: functional; settings: dose <= 10.0 µmol/L
[4] = system: SW579; test: Inhibition of cell proliferation in human SW579 cells upto 10 umol/L incubated for 72 hrs by DAPI staining based analysis; format: functional; settings: dose <= 10.0 µmol/L
[5] = system: C32; test: Inhibition of cell proliferation in human C32 cells upto 10 umol/L incubated for 72 hrs by DAPI staining based analysis; format: functional; settings: dose <= 10.0 µmol/L
[6] = system: JeKo-1; test: Inhibition of cell proliferation in human JeKo-1 cells upto 10 umol/L incubated for 72 hrs by DAPI staining based analysis; format: functional; settings: dose <= 10.0 µmol/L
[7] = system: SCaBER; test: Inhibition of cell proliferation in human SCaBER cells upto 10 umol/L incubated for 72 hrs by DAPI staining based analysis; format: functional; settings: dose <= 10.0 µmol/L
[8] = Cmax in adult patient with recurrent LMNA-NTRK1 rearranged colorectal cancer at 100 mg administered twice a day as powder-in-capsule or liquid formulation for 15 days by LC-MS/MS analysis; format: ADME; settings: human, in vivo, po, time 15 day
[9] = Cmax in pediatric patient with recurrent ETV6-NTRK3-rearranged infantile fibrosarcoma at 60 mg administered twice a day as liquid formulation for 8 day by LC-MS/MS analysis; format: ADME; settings: human, in vivo
[10] = Cmin in pediatric patient with recurrent ETV6-NTRK3-rearranged infantile fibrosarcoma at 60 mg administered twice a day as liquid formulation for 8 day and measured 12 hrs post dose by LC-MS/MS analysis; format: ADME; settings: human, in vivo, read-out: Cmin
[11] = AUC in pediatric patient with recurrent ETV6-NTRK3-rearranged infantile fibrosarcoma at 60 mg administered twice a day as liquid formulation for 8 day by LC-MS/MS analysis; format: ADME; settings: human, in vivo
[12] = molecular target: Serine/threonine-protein kinase SIK1 (Homo sapiens) (UniProt P57059); test: Inhibition of SIK (unknown origin) at 1 uM in presence of ATP relative to control; values are per cent of control
[13] = molecular target: ALK tyrosine kinase receptor (Homo sapiens) (UniProt Q9UM73); test: Inhibition of ALK (unknown origin) at 1 uM in presence of ATP relative to control; values are per cent of control
[14] = molecular target: Tyrosine-protein kinase CSK (Homo sapiens) (UniProt P41240); test: Inhibition of CSK (unknown origin) at 1 uM in presence of ATP relative to control; values are per cent of control
[15] = molecular target: Tyrosine-protein kinase receptor TYRO3 (Homo sapiens) (UniProt Q06418); test: Inhibition of Rse (unknown origin) at 1 uM in presence of ATP relative to control; values are per cent of control
[16] = molecular target: G protein-coupled receptor kinase 6 (Homo sapiens) (UniProt P43250); test: Inhibition of GRK6 (unknown origin) at 1 uM in presence of ATP relative to control; values are per cent of control
[17] = molecular target: Serine/threonine-protein kinase N2 (Homo sapiens) (UniProt Q16513); test: Inhibition of PRK2 (unknown origin) at 1 uM in presence of ATP relative to control; values are per cent of control
[18] = molecular target: Serine/threonine-protein kinase PLK3 (Homo sapiens) (UniProt Q9H4B4); test: Inhibition of Plk3 (unknown origin) at 1 uM in presence of ATP relative to control; values are per cent of control
[19] = molecular target: Activated CDC42 kinase 1 (Homo sapiens) (UniProt Q07912); test: Inhibition of TNK2 (unknown origin) at 1 uM in presence of ATP relative to control; values are per cent of control
[20] = molecular target: Serine/threonine-protein kinase pim-2 (Homo sapiens) (UniProt Q9P1W9); test: Inhibition of Pim-2 (unknown origin) at 1 uM in presence of ATP relative to control; values are per cent of control
[21] = molecular target: Ephrin type-B receptor 3 (Homo sapiens) (UniProt P54753); test: Inhibition of EphB3 (unknown origin) at 1 uM in presence of ATP relative to control; values are per cent of control
[22] = molecular target: Calcium/calmodulin-dependent protein kinase type 1D (Homo sapiens) (UniProt Q8IU85); test: Inhibition of CAMK1d (unknown origin) at 1 uM in presence of ATP relative to control; values are per cent of control
[23] = molecular target: Mitogen-activated protein kinase kinase kinase 5 (Homo sapiens) (UniProt Q99683); test: Inhibition of MAP3K5 (unknown origin) at 1 uM in presence of ATP relative to control; values are per cent of control
[24] = molecular target: Serine/threonine-protein kinase DCLK2 (Homo sapiens) (UniProt Q8N568); test: Inhibition of DCAMKL2 (unknown origin) at 1 uM in presence of ATP relative to control; values are per cent of control
[25] = molecular target: Protein kinase C theta type (Homo sapiens) (UniProt Q04759); test: Inhibition of PKCtheta (unknown origin) at 1 uM in presence of ATP relative to control; values are per cent of control
[26] = molecular target: Mitogen-activated protein kinase 12 (Homo sapiens) (UniProt P53778); test: Inhibition of p38gamma (unknown origin) at 1 uM in presence of ATP relative to control; values are per cent of control
[27] = molecular target: Protein kinase C beta type (Homo sapiens) (UniProt P05771); test: Inhibition of PKCbetall (unknown origin) at 1 uM in presence of ATP relative to control; values are per cent of control
[28] = molecular target: Protein kinase C epsilon type (Homo sapiens) (UniProt Q02156); test: Inhibition of PKCepsilon (unknown origin) at 1 uM in presence of ATP relative to control; values are per cent of control
[29] = molecular target: Cyclin-dependent kinase 1/cyclin B1 (Homo sapiens) (UniProt P06493+P14635); test: Inhibition of CDK1/cyclinB (unknown origin) at 1 uM in presence of ATP relative to control; values are per cent of control
Chain of Cyclin-dependent kinase 1/cyclin B1 (Homo sapiens) (P06493 whole entry, looked up): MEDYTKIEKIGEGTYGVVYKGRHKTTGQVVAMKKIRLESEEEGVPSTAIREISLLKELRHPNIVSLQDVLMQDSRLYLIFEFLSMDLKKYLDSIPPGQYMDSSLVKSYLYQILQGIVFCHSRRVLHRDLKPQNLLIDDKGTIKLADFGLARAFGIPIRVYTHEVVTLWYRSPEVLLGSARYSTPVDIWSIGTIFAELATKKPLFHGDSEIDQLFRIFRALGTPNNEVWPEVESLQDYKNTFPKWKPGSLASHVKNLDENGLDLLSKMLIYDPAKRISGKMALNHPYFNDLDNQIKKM
Chain of Cyclin-dependent kinase 1/cyclin B1 (Homo sapiens) (P14635 whole entry, looked up): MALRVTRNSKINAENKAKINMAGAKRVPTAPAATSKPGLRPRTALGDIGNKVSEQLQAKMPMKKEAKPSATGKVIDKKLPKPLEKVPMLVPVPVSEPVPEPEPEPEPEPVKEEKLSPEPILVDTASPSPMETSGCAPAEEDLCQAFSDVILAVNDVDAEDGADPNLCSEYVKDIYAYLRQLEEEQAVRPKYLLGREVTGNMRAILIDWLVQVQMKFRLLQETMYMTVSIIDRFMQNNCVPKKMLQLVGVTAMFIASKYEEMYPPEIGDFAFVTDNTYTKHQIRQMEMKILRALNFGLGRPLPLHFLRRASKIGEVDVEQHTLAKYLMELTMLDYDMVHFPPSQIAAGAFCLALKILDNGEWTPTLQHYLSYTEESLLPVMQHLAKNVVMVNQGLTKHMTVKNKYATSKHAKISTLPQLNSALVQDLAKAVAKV

Chain of Serine/threonine-protein kinase DCLK2 (Homo sapiens) (Q8N568 whole entry): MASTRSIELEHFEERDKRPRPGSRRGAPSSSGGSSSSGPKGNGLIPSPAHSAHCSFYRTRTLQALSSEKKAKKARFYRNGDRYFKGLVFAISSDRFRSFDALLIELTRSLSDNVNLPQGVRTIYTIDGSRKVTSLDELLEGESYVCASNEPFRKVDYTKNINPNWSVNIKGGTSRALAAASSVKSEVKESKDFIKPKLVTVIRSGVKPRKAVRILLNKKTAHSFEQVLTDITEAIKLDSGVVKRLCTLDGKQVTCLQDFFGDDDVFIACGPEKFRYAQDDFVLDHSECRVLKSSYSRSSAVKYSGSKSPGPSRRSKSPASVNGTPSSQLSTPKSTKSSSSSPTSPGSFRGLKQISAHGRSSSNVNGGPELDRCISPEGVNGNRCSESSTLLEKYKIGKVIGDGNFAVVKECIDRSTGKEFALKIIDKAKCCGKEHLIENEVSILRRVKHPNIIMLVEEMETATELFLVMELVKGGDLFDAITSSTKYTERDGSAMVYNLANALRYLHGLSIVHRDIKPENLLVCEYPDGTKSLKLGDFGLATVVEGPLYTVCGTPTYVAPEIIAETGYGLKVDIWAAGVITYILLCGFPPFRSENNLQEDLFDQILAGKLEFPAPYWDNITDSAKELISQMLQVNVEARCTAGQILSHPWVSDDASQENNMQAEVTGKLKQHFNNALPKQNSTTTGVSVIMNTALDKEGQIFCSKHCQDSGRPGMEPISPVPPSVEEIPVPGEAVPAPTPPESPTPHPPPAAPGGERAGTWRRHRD
Chain of Activated CDC42 kinase 1 (Homo sapiens) (Q07912 whole entry, looked up): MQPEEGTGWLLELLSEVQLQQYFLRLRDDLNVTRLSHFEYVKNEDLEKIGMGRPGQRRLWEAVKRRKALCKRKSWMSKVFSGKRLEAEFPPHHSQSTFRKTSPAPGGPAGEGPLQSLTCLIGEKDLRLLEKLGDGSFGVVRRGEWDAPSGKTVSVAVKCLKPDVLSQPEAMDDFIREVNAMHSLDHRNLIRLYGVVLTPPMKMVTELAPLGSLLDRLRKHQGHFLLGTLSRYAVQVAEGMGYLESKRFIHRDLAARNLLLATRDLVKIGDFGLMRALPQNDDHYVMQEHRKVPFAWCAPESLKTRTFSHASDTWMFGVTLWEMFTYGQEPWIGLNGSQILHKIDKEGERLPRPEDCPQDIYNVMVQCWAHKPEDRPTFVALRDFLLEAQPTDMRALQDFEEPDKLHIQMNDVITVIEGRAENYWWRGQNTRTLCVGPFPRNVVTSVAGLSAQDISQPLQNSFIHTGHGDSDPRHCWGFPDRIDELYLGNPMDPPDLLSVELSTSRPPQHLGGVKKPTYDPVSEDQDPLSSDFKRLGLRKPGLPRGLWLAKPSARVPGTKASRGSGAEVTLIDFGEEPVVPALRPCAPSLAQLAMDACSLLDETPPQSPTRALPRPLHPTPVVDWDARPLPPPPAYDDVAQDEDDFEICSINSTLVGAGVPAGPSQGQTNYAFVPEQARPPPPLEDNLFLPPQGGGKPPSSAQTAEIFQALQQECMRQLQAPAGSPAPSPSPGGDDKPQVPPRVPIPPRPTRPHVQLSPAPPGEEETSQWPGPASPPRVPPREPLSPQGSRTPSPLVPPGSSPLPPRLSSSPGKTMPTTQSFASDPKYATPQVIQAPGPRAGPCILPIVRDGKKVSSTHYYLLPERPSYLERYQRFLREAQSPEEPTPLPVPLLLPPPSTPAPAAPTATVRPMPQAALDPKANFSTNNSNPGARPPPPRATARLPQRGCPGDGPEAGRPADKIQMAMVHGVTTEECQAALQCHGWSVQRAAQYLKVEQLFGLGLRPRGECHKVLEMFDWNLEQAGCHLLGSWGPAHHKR
Chain of Mitogen-activated protein kinase kinase kinase 5 (Homo sapiens) (Q99683 whole entry): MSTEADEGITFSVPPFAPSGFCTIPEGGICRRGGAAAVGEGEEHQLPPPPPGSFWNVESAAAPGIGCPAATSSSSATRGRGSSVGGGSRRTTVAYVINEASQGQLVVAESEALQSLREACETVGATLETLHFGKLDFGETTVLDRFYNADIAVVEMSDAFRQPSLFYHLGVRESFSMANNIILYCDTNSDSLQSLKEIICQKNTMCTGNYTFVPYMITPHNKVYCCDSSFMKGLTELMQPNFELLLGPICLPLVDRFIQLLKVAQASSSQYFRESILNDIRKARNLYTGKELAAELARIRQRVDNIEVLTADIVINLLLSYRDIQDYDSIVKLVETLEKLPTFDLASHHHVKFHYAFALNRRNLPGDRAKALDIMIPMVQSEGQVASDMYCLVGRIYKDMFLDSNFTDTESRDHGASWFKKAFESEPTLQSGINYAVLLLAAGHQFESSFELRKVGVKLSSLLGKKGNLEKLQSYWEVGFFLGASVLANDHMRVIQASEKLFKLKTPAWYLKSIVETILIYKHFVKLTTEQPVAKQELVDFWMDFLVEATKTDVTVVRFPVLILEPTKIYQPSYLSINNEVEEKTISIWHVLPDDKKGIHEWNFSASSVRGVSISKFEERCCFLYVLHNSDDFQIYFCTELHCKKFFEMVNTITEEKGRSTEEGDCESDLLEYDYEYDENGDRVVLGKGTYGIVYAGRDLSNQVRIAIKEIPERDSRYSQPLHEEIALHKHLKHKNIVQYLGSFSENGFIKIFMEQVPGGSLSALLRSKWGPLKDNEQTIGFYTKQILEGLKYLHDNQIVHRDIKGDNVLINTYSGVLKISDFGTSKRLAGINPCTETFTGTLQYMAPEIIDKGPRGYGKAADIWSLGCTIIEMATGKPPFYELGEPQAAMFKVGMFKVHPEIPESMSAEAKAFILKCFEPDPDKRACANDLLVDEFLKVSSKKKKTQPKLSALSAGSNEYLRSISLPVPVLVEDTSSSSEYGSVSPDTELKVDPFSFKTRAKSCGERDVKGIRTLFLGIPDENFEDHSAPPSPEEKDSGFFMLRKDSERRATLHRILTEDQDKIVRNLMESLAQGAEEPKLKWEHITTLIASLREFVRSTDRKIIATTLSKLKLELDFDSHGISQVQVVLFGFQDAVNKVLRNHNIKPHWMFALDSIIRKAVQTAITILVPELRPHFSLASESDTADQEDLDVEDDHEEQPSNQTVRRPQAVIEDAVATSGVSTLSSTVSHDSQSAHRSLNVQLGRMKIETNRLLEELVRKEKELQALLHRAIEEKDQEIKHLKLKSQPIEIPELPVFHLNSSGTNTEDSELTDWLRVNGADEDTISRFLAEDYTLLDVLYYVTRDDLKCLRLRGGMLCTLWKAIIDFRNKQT
Chain of Protein kinase C theta type (Homo sapiens) (Q04759 whole entry, looked up): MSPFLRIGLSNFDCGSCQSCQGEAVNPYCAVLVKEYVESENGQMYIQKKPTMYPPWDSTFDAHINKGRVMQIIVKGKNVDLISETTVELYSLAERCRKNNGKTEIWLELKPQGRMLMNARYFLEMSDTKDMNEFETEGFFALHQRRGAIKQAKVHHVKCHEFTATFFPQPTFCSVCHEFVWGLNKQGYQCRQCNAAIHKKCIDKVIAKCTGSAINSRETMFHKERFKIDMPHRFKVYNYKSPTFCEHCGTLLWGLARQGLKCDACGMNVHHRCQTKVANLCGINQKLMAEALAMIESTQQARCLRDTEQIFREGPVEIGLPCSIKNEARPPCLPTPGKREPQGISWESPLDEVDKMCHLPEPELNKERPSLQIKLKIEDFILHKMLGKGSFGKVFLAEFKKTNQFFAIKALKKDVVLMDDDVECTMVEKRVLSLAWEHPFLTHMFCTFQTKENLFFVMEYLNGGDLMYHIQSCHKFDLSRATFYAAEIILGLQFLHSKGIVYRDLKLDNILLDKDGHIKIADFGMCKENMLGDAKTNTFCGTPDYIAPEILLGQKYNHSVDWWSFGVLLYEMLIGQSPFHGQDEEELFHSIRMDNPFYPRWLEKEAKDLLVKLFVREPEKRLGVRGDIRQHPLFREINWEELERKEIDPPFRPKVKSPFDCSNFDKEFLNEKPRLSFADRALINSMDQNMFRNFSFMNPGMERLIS
Chain of Tyrosine-protein kinase CSK (Homo sapiens) (P41240 2-450 limits assumed): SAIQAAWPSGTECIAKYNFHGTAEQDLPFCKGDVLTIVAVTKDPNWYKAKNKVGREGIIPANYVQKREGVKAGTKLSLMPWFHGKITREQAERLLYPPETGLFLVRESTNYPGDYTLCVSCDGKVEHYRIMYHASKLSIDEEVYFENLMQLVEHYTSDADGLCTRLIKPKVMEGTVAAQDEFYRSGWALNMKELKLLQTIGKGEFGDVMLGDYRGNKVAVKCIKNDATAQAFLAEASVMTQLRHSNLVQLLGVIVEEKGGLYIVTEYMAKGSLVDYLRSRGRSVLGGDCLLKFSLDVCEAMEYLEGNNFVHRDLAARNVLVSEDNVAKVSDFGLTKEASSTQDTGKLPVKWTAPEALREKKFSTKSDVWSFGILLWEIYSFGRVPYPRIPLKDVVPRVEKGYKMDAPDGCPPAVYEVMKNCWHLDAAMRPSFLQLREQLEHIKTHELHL

In the case of `C[C@@H]1CCc2ncc(F)cc2[C@H]2CCCN2c2ccn3ncc(c3n2)C(=O)N1` [SELITRECTINIB], the bioavailability [1] is reported as 2%, the Activity [2] is reported as under 5% and the inhibition [3] is reported as “inactive”. For the same compound, the inhibition [4] was “inactive”, the inhibition [5] was “inactive” and the inhibition [6] was “inactive”. For the same compound, the inhibition [7] was “inactive”, the Cmax [8] was 673 ng/mL and the Cmax [9] was 415 ng/mL. The concentration at 204 h [10] was under 1 ng/mL, the AUC at 192 h [11] was 2010 ng·h/mL and the residual activity [12] was 107%. It also gave a residual activity [13] of 50%, a residual activity [14] of 112% and a residual activity [15] of 110%. For the same compound, the residual activity [16] was 106%, the residual activity [17] was 100% and the residual activity [18] was 93.5%. It also gave a residual activity [19] of 10%, a residual activity [20] of 120% and a residual activity [21] of 101%. For the same compound, the residual activity [22] was 116%, the residual activity [23] was 106% and the residual activity [24] was 140%. For the same compound, the residual activity [25] was 108%, the residual activity [26] was 104% and the residual activity [27] was 90.5%. For the same compound, the residual activity [28] was 102% and the residual activity [29] was 102%.
